Test results reported in ChEMBL document CHEMBL1201862, “PubChem BioAssay data set” (2004).
Active and inactive are the calls of the source.

What was measured:
Coagulation factor XII = biological target: T1, Coagulation factor XII (Homo sapiens, UniProt P00748); type: functional;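 note: activated factor XIIa alpha cleaving a fluorogenic AMC peptide substrate; inhibitor potency from loss of enzyme activity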
T1 sequence (P00748 whole entry): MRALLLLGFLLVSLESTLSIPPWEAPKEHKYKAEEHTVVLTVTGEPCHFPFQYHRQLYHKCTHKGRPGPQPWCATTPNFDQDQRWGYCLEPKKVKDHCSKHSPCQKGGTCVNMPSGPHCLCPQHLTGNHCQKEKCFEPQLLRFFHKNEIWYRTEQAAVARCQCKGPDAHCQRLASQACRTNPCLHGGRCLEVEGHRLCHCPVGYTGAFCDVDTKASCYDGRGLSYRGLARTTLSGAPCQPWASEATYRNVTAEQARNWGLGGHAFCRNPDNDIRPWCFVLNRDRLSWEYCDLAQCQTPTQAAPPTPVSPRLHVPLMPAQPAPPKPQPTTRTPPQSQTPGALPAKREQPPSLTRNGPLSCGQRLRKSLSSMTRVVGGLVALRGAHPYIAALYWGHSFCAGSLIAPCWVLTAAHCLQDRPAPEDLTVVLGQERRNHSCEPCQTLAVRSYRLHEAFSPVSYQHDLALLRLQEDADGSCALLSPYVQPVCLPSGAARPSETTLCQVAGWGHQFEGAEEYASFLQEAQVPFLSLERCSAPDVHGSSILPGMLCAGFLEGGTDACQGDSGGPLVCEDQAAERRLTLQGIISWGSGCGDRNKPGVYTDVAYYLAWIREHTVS

[1] = biological target: T2, Type-1 angiotensin II receptor (Homo sapiens, UniProt P30556); test: agonist activity at AGTR1 – cell-based, uHTS hits, selectivity assay for APJ receptor agonist project, dose response (AID 488865); type: functional;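 note: beta-arrestin recruitment to AT1 measured by enzyme fragment complementation luminescence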
T2 sequence (P30556 whole entry): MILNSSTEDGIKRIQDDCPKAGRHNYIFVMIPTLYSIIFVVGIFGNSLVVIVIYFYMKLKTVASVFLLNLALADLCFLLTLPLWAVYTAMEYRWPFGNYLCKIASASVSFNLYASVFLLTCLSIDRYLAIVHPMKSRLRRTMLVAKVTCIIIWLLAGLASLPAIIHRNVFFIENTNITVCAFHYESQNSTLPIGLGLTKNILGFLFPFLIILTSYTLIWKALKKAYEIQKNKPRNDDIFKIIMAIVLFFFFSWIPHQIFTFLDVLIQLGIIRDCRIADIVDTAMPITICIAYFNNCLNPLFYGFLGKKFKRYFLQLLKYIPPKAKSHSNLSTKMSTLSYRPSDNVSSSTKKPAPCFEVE

[2] = biological target: SWI/SNF-related matrix-associated actin-dependent regulator of chromatin subfamily A member 2 (Homo sapiens, UniProt P51531); test: Luminescence-based cell-based high throughput dose response assay to identify activators of the function of SWI/SNF related, matrix associated, actin dependent regulator of chromatin, subfamily a, member 2 (SMARCA2, BRM).; type: functional
[3] = Counterscreen for activators of the function of SWI/SNF related, matrix associated, actin dependent regulator of chromatin, subfamily a, member 2 (SMARCA2, BRM): Luminescence-based cell-based high throughput dose response assay to identify non-selective compounds using the VP16 reporter assay.; type: functional
[4] = biological target: Peroxisome proliferator-activated receptor gamma/Nuclear receptor coactivator 1 (Homo sapiens, UniProt P37231); test: (§1) TR-FRET dose response biochemical High Throughput Screening assay for agonists of the steroid receptor coactivator 1 (SRC-1) recruitment by the peroxisome proliferator-activated receptor gamma (PPAR gamma): non-selective agonists. [Related pubchem assays (depositor defined):AID1300, AID1808, AID504735, AID631]; type: protein assay
Chain of Peroxisome proliferator-activated receptor gamma/Nuclear receptor coactivator 1 (P37231 whole entry): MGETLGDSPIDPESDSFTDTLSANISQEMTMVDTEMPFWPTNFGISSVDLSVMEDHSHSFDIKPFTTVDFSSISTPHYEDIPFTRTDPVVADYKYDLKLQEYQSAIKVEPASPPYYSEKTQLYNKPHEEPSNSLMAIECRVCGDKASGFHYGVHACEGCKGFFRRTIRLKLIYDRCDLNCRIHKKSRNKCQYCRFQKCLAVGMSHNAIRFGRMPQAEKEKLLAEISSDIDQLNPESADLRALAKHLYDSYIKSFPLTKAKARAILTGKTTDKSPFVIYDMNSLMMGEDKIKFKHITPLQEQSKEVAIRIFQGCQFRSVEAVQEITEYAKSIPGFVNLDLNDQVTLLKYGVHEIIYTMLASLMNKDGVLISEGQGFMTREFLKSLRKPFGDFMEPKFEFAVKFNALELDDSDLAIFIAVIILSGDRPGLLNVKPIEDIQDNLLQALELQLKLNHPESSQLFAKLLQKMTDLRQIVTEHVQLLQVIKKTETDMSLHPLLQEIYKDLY
Chain of Peroxisome proliferator-activated receptor gamma/Nuclear receptor coactivator 1 (Q15788 whole entry, further chain): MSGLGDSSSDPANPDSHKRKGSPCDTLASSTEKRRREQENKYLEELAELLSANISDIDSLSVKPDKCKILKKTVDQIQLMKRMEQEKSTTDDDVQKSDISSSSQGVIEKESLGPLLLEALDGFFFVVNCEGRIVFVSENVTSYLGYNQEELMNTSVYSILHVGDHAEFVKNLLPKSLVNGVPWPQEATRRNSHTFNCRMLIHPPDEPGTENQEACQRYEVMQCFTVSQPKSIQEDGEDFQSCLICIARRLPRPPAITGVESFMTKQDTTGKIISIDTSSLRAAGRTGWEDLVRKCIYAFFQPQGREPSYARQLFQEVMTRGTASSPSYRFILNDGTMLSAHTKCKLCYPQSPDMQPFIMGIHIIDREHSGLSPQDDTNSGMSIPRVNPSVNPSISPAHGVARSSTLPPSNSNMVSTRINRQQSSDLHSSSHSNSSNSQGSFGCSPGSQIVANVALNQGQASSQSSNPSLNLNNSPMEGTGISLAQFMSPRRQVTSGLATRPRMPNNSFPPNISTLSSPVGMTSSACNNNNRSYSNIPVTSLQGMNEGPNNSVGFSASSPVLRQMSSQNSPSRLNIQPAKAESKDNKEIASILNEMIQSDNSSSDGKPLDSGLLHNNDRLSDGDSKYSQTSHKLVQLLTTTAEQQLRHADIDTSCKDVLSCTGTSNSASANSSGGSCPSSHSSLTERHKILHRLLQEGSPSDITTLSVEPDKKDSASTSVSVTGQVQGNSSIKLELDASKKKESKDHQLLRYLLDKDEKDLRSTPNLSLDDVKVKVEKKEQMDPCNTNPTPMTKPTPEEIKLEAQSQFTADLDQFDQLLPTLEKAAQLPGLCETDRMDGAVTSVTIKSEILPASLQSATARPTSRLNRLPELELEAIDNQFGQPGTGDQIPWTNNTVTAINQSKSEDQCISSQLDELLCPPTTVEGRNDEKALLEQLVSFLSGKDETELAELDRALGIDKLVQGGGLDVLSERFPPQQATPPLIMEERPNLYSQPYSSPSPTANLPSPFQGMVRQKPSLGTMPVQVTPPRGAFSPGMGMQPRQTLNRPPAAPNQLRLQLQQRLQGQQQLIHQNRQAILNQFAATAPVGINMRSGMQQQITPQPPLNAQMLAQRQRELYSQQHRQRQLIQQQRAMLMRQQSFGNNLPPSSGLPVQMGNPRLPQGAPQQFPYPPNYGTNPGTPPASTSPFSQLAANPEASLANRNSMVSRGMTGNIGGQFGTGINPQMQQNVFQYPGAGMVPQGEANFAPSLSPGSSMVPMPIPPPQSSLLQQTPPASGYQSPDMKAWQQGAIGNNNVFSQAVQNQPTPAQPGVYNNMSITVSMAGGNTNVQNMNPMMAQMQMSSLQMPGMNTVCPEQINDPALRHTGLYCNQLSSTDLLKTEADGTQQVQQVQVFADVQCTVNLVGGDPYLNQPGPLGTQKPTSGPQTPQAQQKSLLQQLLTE

[5] = biological target: Peroxisome proliferator-activated receptor gamma/Nuclear receptor coactivator 3 (Homo sapiens, UniProt P37231); test: as §1, with “3 (SRC-3)” for “1 (SRC-1)”, “assays: 1301 (Confirmation screen.), 1048 (Primary screen.)]” for “assays (depositor defined):AID1300, AID1808, AID504735, AID631]”; type: functional
[6] = biological target: Peroxisome proliferator-activated receptor gamma/Nuclear receptor corepressor 2 (Homo sapiens, UniProt P37231+Q9Y618); test: Counterscreen for NR2E3 inverse agonists: TR-FRET-based biochemical high throughput dose response assay to identify inverse agonists of the interaction between peroxisome proliferator-activated receptor gamma (PPARg) and nuclear receptor co-repressor 2 (NCOR2).; type: functional
[7] = biological target: Photoreceptor-specific nuclear receptor (Homo sapiens, UniProt Q9Y5X4); test: ligands suppressing NR2E3 nuclear receptor activity – biochemical, TR-FRET, dose response (AID 463256); type: functional
[8] = biological target: Peroxisome proliferator-activated receptor gamma/Nuclear receptor coactivator 2 (Homo sapiens, UniProt P37231); test: TR-FRET dose response biochemical High Throughput Screening assay for agonists of the steroid receptor coactivator 2 (SRC-2) recruitment by the peroxisome proliferator-activated receptor gamma (PPAR gamma): non-selective agonists. [Related pubchem assays: 1297, 1032 ]; type: functional
Chain of Peroxisome proliferator-activated receptor gamma/Nuclear receptor coactivator 2 (P37231 whole entry): as the sequence (P37231 whole entry) above
Chain of Peroxisome proliferator-activated receptor gamma/Nuclear receptor coactivator 2 (Q15596 whole entry, further chain): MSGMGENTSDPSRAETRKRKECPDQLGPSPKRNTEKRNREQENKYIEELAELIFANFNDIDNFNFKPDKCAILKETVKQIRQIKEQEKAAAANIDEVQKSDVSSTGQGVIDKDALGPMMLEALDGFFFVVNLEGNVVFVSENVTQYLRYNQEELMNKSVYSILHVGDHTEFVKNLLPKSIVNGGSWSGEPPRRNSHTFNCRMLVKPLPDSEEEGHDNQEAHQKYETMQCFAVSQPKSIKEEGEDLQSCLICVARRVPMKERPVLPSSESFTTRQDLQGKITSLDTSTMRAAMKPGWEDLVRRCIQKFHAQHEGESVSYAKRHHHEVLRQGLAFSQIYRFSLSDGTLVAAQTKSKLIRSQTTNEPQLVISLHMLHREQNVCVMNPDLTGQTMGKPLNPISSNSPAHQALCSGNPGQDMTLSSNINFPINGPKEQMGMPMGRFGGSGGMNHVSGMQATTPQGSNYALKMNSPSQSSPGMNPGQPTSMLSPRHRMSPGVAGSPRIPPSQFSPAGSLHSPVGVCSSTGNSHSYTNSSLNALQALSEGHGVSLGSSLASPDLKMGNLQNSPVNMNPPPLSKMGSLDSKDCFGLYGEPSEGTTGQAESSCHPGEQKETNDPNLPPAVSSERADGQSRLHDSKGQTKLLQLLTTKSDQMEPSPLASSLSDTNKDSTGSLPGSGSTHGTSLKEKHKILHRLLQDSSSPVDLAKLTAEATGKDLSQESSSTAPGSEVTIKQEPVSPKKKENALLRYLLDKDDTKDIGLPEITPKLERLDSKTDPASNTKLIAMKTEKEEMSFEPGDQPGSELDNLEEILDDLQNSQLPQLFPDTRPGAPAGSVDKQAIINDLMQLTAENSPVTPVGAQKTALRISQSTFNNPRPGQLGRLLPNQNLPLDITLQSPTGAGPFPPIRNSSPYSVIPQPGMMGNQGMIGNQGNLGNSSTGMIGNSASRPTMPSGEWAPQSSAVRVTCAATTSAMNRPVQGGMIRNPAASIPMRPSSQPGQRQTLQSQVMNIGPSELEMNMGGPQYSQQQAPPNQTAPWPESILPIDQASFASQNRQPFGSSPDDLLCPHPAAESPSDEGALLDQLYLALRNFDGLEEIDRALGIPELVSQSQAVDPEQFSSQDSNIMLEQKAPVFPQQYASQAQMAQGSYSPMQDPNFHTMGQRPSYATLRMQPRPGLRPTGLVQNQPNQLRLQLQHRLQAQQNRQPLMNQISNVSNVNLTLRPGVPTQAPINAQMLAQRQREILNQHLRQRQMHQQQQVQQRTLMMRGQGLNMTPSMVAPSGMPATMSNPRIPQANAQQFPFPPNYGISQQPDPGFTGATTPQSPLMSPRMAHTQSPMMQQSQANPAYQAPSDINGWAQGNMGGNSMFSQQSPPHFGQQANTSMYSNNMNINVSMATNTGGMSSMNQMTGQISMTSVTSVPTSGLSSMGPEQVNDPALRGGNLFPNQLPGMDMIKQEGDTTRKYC

SUMO-activating enzyme = SUMO-activating enzyme (Homo sapiens, UniProt Q9UBT2); test: blockers of UBC9-mediated SUMO conjugation – biochemical, AlphaScreen, SUMOylation inhibitor project, confirmation (AID 2018); type: functional
[9] = biological target: Glyceraldehyde-3-phosphate dehydrogenase (Homo sapiens, UniProt P04406)
[10] = biological target: T3, Alkaline phosphatase, tissue-nonspecific isozyme (Homo sapiens, UniProt P05186); test: potency against alkaline phosphatase TNAP – biochemical, luminescent, dose response, SAR follow-up (AID 1056)
T3 sequence (P05186 whole entry): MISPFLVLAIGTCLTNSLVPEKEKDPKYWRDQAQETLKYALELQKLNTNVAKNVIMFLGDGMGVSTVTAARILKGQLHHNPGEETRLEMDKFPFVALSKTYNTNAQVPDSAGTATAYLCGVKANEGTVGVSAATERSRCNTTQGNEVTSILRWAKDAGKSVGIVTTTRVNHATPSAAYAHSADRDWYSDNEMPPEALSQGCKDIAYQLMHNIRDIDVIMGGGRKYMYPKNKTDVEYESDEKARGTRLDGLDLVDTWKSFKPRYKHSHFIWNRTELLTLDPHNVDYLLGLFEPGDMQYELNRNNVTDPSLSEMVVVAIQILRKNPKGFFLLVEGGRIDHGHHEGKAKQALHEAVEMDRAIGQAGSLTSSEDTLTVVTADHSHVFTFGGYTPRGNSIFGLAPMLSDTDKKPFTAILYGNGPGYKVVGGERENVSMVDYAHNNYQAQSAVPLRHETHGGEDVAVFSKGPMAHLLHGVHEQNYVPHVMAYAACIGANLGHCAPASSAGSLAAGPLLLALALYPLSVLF

[11] = biological target: T4, E3 ubiquitin-protein ligase XIAP (Homo sapiens, UniProt P98170); test: Counter Screen using XIAP-Bir3 for Chemical Antagonists of Bir1/2 domains of IAP-family anti-apoptotic proteins. [Related pubchem assays (depositor defined):AID1018, AID1449, AID1514, AID1638, AID1749, AID1750, AID488957, AID488963]
T4 sequence (P98170 whole entry): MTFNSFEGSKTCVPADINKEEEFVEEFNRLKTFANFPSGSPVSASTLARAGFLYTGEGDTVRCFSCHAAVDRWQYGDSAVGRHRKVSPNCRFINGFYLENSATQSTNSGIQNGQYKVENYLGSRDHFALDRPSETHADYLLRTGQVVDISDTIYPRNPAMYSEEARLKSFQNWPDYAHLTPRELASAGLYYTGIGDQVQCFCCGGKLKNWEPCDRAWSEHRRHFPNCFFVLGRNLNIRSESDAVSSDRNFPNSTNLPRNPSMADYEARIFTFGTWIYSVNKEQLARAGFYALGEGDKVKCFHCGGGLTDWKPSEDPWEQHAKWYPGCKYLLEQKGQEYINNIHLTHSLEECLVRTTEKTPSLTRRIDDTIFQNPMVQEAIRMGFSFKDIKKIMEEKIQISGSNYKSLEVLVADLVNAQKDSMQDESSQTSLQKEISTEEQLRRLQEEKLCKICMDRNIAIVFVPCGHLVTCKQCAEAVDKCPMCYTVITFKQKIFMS

[12] = biological target: T4, E3 ubiquitin-protein ligase XIAP; test: small molecules displacing peptide from XIAP – biochemical, IAP family, fluorescence polarization (AID 1018); type: functional
[13] = biological target: T5, Corticotropin-releasing factor receptor 2/Corticotropin-releasing factor-binding protein (Homo sapiens, UniProt P24387+Q13324); test: Dose Response confirmation of uHTS hits for small molecule antagonists of the CRF-binding protein and CRF-R2 receptor complex.; type: functional; details: read-out: IC50_Mean
T5 sequence (Q13324 whole entry): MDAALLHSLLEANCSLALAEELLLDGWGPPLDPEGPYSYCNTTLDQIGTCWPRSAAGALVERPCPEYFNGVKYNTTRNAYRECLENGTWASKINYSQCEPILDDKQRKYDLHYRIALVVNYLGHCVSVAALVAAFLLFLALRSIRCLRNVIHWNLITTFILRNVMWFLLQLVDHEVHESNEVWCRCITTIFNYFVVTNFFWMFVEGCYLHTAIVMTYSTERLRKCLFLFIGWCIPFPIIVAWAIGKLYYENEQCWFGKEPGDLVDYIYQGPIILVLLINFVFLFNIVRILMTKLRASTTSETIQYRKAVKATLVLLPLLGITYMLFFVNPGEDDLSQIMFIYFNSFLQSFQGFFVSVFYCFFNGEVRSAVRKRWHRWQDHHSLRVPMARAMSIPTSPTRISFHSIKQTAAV
T5 sequence (P24387 whole entry): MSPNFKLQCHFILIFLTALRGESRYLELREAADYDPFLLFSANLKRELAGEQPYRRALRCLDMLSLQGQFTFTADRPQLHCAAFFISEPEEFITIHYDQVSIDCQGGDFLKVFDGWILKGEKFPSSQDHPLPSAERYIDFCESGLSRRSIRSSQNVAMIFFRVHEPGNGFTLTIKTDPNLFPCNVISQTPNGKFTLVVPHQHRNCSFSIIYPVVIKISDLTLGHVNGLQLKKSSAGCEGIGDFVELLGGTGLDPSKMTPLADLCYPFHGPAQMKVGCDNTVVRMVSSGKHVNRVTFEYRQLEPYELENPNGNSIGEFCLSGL

[14] = biological target: T5, Corticotropin-releasing factor receptor 2/Corticotropin-releasing factor-binding protein; test: activators of CRF receptor 2 with binding protein – uHTS hits, confirmation (AID 602473); type: functional; details: read-out: EC50_Mean
[15] = biological target: T6, Polyadenylate-binding protein 1 (Homo sapiens, UniProt P11940); test: MLLE binding blockers, Cy5 peptide tracer – biochemical, fluorescence polarization, Cy5-PAM2 peptide, secondary, miRNA deadenylation inhibitor project, dose response (AID 602260); type: functional; details: read-out: IC50_Mean
T6 sequence (P11940 whole entry, the tested form may be a part): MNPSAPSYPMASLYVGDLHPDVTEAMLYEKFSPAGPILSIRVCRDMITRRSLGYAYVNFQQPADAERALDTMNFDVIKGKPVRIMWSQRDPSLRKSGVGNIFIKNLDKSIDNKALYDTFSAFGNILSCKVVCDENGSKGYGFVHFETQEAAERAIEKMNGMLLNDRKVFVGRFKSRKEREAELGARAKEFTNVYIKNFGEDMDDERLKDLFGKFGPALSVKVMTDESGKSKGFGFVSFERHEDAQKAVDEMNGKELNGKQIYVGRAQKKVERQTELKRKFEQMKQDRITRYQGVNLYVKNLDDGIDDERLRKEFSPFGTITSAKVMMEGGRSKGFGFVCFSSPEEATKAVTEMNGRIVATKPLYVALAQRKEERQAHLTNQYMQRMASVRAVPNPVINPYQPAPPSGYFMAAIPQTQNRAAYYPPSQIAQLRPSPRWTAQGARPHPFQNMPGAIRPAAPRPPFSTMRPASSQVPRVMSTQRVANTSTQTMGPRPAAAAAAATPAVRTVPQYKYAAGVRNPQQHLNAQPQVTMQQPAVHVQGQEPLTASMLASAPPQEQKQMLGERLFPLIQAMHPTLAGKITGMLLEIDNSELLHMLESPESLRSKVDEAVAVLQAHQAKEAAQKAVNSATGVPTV

[16] = biological target: T6, Polyadenylate-binding protein 1; test: MLLE domain peptide-binding blockers, IC50 – biochemical, fluorescence polarization, FITC-PAM2 peptide, dose response (AID 602259); type: functional; details: read-out: IC50_Mean
Troponin, cardiac muscle = Troponin, cardiac muscle (Homo sapiens, UniProt P19429+P45379+P63316); test: Fluorescence-based biochemical high throughput dose response assay for activators of the calcium sensitivity of cardiac Regulated Thin Filaments (RTF). [Related pubchem assays (depositor defined):AID493008, AID493018, AID504382, AID504383]; type: protein-complex assay
INS1 = test: INS-1E survival protection against cytokine death – cell-based, luminescence, retest, dose response (AID 449756); type: functional; details: Rattus norvegicus;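 note: cell death triggered by IL-1 beta plus TNF-alpha plus IFN-gamma mixture; protective hits raise ATP signal compared with cytokine alone wells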
[17] = biological target: T7, COUP transcription factor 2 (Homo sapiens, UniProt P24468); test: Luminescence-based cell-based high throughput dose response assay to identify inhibitors of COUP-TFII (NR2F2).; type: functional;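 note: HEK293 cells transiently cotransfected with COUP-TFII expression vector and reporter; luciferase reporter luminescence driven by COUP-TFII from the pX2-168 reporter plasmid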
T7 sequence (P24468 whole entry): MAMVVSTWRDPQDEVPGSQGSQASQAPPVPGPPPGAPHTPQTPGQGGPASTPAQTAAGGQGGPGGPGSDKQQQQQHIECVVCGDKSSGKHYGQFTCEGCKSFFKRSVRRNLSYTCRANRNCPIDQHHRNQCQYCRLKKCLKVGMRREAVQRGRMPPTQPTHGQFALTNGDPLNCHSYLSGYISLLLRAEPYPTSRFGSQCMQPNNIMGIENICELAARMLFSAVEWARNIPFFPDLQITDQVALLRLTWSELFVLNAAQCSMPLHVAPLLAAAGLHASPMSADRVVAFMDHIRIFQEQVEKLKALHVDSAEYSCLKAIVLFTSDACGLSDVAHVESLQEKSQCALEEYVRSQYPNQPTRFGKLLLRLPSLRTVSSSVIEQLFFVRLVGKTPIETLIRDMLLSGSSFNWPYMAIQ

Compound: CC1CCN(S(=O)(=O)c2ccc3nc(-c4ccccn4)cc(C(=O)NCCN(C)Cc4ccccc4)c3c2)CC1
- IC50 (Coagulation factor XII): > 50 µM (inactive)
- EC50 [1]: > 100 µM (inactive)
- EC50 [2]: > 91.2 µM (inactive)
- EC50 [3]: > 91.2 µM (inactive)

Compound: Cc1nc2ccc3nc(NC(=O)c4ccc5c(c4)OCCO5)sc3c2s1
- EC50 [4]: 4.06 µM (active)
- EC50 [5]: 10.3 µM (not active)
- IC50 [6]: 1.23 µM (active)
- IC50 [7]: 0.813 µM (active)
- EC50 [8]: 3.98 µM (active)

Compound: Cc1ccc(-c2cc(C(=O)NCc3cn(C)nc3C)c3cc(Br)ccc3n2)cc1
- EC50 [4]: 13.8 µM (inactive)
- EC50 [5]: 40.7 µM (not active)
- EC50 [8]: 10.8 µM (not active)

Compound: CN(C)c1ccc(NC(=O)c2sc(SCC(=O)Nc3ccc(Br)cc3)nc2N)cc1
- IC50 (SUMO-activating enzyme): 41.5 µM (active)

Compound: COc1ccc(S(=O)(=O)Nc2ccc3ccccc3c2)c(OC)c1
- IC50 [9]: > 10 µM (inconclusive)
- IC50 [10]: > 10 µM (inactive)

Compound: CC1=C(C(=O)NCc2ccccn2)C2(CCC(C)CC2)OC1=O (stereo not drawn)
- IC50 [11]: > 100 µM (inactive)
- IC50 [12]: > 100 µM (not active)
- IC50 [13]: > 47.1 µM (inactive)
- EC50 [14]: > 53 µM (inactive)

Compound: Cc1cccc(N(CC(N)=O)C2SC(=O)N(c3ccccc3)C2=O)c1 (stereo not drawn)
- IC50 [11]: > 100 µM (inactive)
- IC50 [12]: > 100 µM (not active)
- IC50 [15]: > 66 µM (inactive)
- IC50 [16]: > 66 µM (inactive)

Compound: CCc1ccc(C(=O)NNC(=O)c2cccc(N3C(=O)CCC3=O)c2)cc1
- EC50 (Troponin, cardiac muscle): > 71.5 µM (inactive)

Compound: O=C(Nc1ccc(C(=O)N2CCOCC2)cc1)Nc1cccc(Cl)c1
- EC50 (Troponin, cardiac muscle): > 71.5 µM (inactive)

Compound: CC(C)(C)OC(=O)NCCCCCc1cn([C@@H](CO)C(=O)NCCCCCCCCCCC(=O)N2CCN(C(=O)OC(C)(C)C)CC2)nn1
- EC50 [1]: > 100 µM (inactive)
- AC50 (INS1): 5.45 µM (active)
- IC50 [17]: 3.28 µM (active)
